Test systems include EKVX NSCLC; HL-60(TB) leukemia; NCI-H460 lung; RXF 393 renal; SK-OV-3 ovarian; SR leukemia; UACC-62 melanoma; UO-31 renal; A498 renal.
Holding throughout (test): NCI-60 cell line screen, 48 h

Where “and” joins values, the source holds several entries; their conditions need not be identical. Equal values may be shown once.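 Exposure lasted 48 hours, with cells grown in 96-well plates and compounds tested at five concentrations. GI50 is the concentration that inhibits growth by half. The concentration for full growth arrest is given as TGI.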

For the molecule `CCCCOC(=O)NC(=O)c1cn(CCCOC(=O)CCCCCCCCC(=O)OCCCn2cc(C(=O)NC(=O)OCCCC)c(=O)[nH]c2=O)c(=O)[nH]c1=O`, the TGI in the assay with EKVX NSCLC, in the assay with HL-60(TB) leukemia, in the assay with NCI-H460 lung, in the assay on RXF 393 renal, with SK-OV-3 ovarian and with SR leukemia was above 100 µM each time. For the same molecule, the TGI in the assay with UACC-62 melanoma and in the assay with UO-31 renal was above 100 µM in each case.
For `Nc1c(C(=O)c2ccc(Cl)cc2)sc(Nc2ccccc2)c1-c1nc2ccccc2s1`, the GI50 was 3.67 µM in the assay with A498 renal; 2 µM in the assay on EKVX NSCLC; above 57.3 µM with HL-60(TB) leukemia; 0.776 µM in the assay with NCI-H460 lung; 10.5 µM in the assay on RXF 393 renal; 1.99 µM with SK-OV-3 ovarian. In addition, the GI50 in the assay on SR leukemia was 0.857 µM; in the assay with UACC-62 melanoma, 2.27 µM; with UO-31 renal, 2.16 µM. In addition, the TGI in the assay with A498 renal was 19.1 µM; in the assay on EKVX NSCLC, above 100 µM; in the assay on HL-60(TB) leukemia, above 100 µM; with NCI-H460 lung it was above 100 µM; in the assay with RXF 393 renal, 33.1 µM; in the assay on SK-OV-3 ovarian it was 19 µM. The TGI in the assay with SR leukemia, in the assay with UACC-62 melanoma and in the assay on UO-31 renal was above 100 µM each time.
`COc1ccc(NC(=O)C(=O)C(C(=O)c2ccccc2)C2OC(=O)c3ccccc32)c([N+](=O)[O-])c1` (configuration not stated): the TGI in the assay on A498 renal, in the assay on EKVX NSCLC, in the assay with HL-60(TB) leukemia, with NCI-H460 lung, in the assay with RXF 393 renal and in the assay with SK-OV-3 ovarian was above 100 µM each time. In addition, the TGI in the assay on SR leukemia, in the assay with UACC-62 melanoma and in the assay with UO-31 renal was above 100 µM in each case.
Consider `CCCCCCCCC[C@@H]1CC(=O)OCC2OC(O[C@H](CCCCCCCCC)CC(=O)OCC3OC(O[C@H](CCCCCCCCC)CC(=O)OCC4OC(O1)C(O)C(O)C4O)C(O)C(O)C3O)C(O)C(O)C2O` (some centres not stated), for which the TGI was found to be 27.9 µM in the assay with A498 renal; 25.1 µM in the assay with EKVX NSCLC; 31.8 µM with HL-60(TB) leukemia; 17.3 µM in the assay on NCI-H460 lung; 30.9 µM in the assay with RXF 393 renal; 26.5 µM with SK-OV-3 ovarian. The values for the TGI with SR leukemia, in the assay on UACC-62 melanoma and in the assay on UO-31 renal were 20.6 µM, 28.6 µM and 24.6 µM, respectively.
In the case of `COc1cc(/C=C(\C#N)C(=O)c2ccccc2)ccc1OCc1ccccc1`, the TGI with EKVX NSCLC, in the assay with HL-60(TB) leukemia, with SK-OV-3 ovarian, with SR leukemia, in the assay on UACC-62 melanoma and in the assay on UO-31 renal was above 100 µM throughout.
As to `CCNC(=O)CCN(C(=O)O)S(=O)(=O)c1ccc(NC(=O)c2ccccc2)cc1`, the TGI in the assay with A498 renal, with EKVX NSCLC, in the assay with HL-60(TB) leukemia, with NCI-H460 lung, with SK-OV-3 ovarian and with SR leukemia was above 100 µM each time. The TGI in the assay with UACC-62 melanoma and with UO-31 renal was above 100 µM in each case.
In the case of `CCN(CC)C(=C(C(Cl)=C(Cl)Cl)[N+](=O)[O-])N(CC)CC`, the TGI with A498 renal is above 100 µM; in the assay with EKVX NSCLC it was above 100 µM; with HL-60(TB) leukemia, above 100 µM; in the assay with NCI-H460 lung it was above 100 µM; with RXF 393 renal, 67 µM; in the assay with SK-OV-3 ovarian, above 100 µM. The TGI with SR leukemia, in the assay with UACC-62 melanoma and in the assay with UO-31 renal was above 100 µM throughout.
Take `COc1ccc(-c2onc(-c3ccc([N+](=O)[O-])cc3)c2C2=NCCN2)cc1`: the TGI in the assay with EKVX NSCLC, with HL-60(TB) leukemia, with NCI-H460 lung, in the assay on RXF 393 renal, with SR leukemia and in the assay with UACC-62 melanoma was above 100 µM in each case. This molecule gave a TGI in the assay on UO-31 renal above 100 µM.
Turning to `O=[N+]([O-])c1cccc(/C=N\NS(=O)(=O)c2ccc(Cl)cc2)c1O`, the TGI in the assay on A498 renal, with EKVX NSCLC, with HL-60(TB) leukemia, in the assay with NCI-H460 lung, in the assay on RXF 393 renal and in the assay on SK-OV-3 ovarian was above 100 µM each time. The TGI in the assay with SR leukemia is 60.5 µM; in the assay on UACC-62 melanoma, above 100 µM; in the assay on UO-31 renal, above 100 µM.
For `CCCCc1c2c(nc3c1CCC/C3=C\c1ccccc1)C(=O)CCC2`, the TGI in the assay with A498 renal is 61.4 µM; with EKVX NSCLC, 68.4 µM; in the assay with HL-60(TB) leukemia, 74.3 µM; in the assay with NCI-H460 lung, above 100 µM; in the assay on RXF 393 renal it was 33 µM; in the assay with SK-OV-3 ovarian, 67.2 µM. In addition, the TGI with SR leukemia was 36.6 µM; in the assay on UACC-62 melanoma, 44 µM; in the assay on UO-31 renal, 61.8 µM.
Consider `O=C1OC(CC(=O)c2ccc(Cl)c(Cl)c2)C(Cl)=C1Cl` (configuration not stated), for which the TGI with A498 renal, in the assay with EKVX NSCLC, in the assay with HL-60(TB) leukemia, with NCI-H460 lung, in the assay on RXF 393 renal and with SK-OV-3 ovarian was above 100 µM each time. Also, the TGI with UACC-62 melanoma and with UO-31 renal was above 100 µM throughout.
`NC(=O)C(=Cc1ccc(C(O)P(=O)(O)O)cc1)C(N)=O` (configuration not stated): the TGI in the assay with A498 renal, in the assay on EKVX NSCLC, in the assay on NCI-H460 lung, in the assay with RXF 393 renal, with SK-OV-3 ovarian and with UACC-62 melanoma was above 100 µM in each case. In addition, the TGI with UO-31 renal was above 100 µM.
Consider `COC(=O)CCc1cc(OC)c2c(c1)C(C(=O)OC)C(c1ccc(OC)c(OC)c1)O2` (configuration not stated), for which the GI50 was above 100 µM with A498 renal; > 100 µM and 46.4 µM in the assay with NCI-H460 lung; > 100 µM and 39.6 µM in the assay on SK-OV-3 ovarian; > 100 µM and 16.7 µM in the assay with UACC-62 melanoma; 84.9 µM and 36.8 µM in the assay on UO-31 renal. Moreover, the TGI in the assay with A498 renal, with EKVX NSCLC, with HL-60(TB) leukemia, in the assay on NCI-H460 lung, in the assay on RXF 393 renal and in the assay with SK-OV-3 ovarian was above 100 µM each time. Moreover, the TGI in the assay on SR leukemia, in the assay with UACC-62 melanoma and with UO-31 renal was above 100 µM in each case.
As to `NNC(=O)/C(=C/c1ccc(Cl)c(Cl)c1)NC(=O)c1ccccc1`, the TGI in the assay on EKVX NSCLC, in the assay with HL-60(TB) leukemia, in the assay with NCI-H460 lung, with RXF 393 renal, in the assay with UACC-62 melanoma and in the assay with UO-31 renal was above 100 µM each time.

The values are drawn from PubChem BioAssay (NCI).
